Data reported in the NIST ThermoML archive (doi:10.1021/je800110r).
± gives the expanded uncertainty stated by the source.

Conditions: 323.14 K, Liquid, Vibrating tube method

CCCCCCCCCC [decane]
Conditions | mass density [kg/m3]
6233 kPa | 712.5 ± 2
6244 kPa | 712.5 ± 2
6414 kPa | 712.6 ± 2
6459 kPa | 712.7 ± 2
6531 kPa | 712.7 ± 2
6557 kPa | 712.8 ± 2
6576 kPa | 712.8 ± 2
6597 kPa | 712.9 ± 2
6619 kPa | 712.7 ± 2
6725 kPa | 712.9 ± 2
6747 kPa | 713 ± 2
6764 kPa | 712.9 ± 2
6781 kPa | 713.1 ± 2
6809 kPa | 713 ± 2
6826 kPa | 713 ± 2
6855 kPa | 713 ± 2
6870 kPa | 713 ± 2
6893 kPa | 713.1 ± 2
7285 kPa | 713.4 ± 2
7382 kPa | 713.6 ± 2
7397 kPa | 713.5 ± 2
7411 kPa | 713.6 ± 2
7428 kPa | 713.5 ± 2
7445 kPa | 713.5 ± 2
7465 kPa | 713.7 ± 2
7482 kPa | 713.5 ± 2
7509 kPa | 713.6 ± 2
7525 kPa | 713.5 ± 2
7542 kPa | 713.8 ± 2
7557 kPa | 713.7 ± 2
7580 kPa | 713.6 ± 2
7601 kPa | 713.7 ± 2
7618 kPa | 713.7 ± 2
7634 kPa | 713.7 ± 2
7652 kPa | 713.7 ± 2
7670 kPa | 713.8 ± 2
7683 kPa | 713.8 ± 2
7696 kPa | 713.7 ± 2
7715 kPa | 713.7 ± 2
7737 kPa | 713.8 ± 2
7758 kPa | 713.9 ± 2
7774 kPa | 713.9 ± 2
7790 kPa | 713.8 ± 2
7809 kPa | 713.9 ± 2
7828 kPa | 713.9 ± 2
7850 kPa | 714 ± 2
7869 kPa | 714 ± 2
7894 kPa | 713.9 ± 2
7916 kPa | 713.9 ± 2
7935 kPa | 714.1 ± 2
7956 kPa | 714 ± 2
7977 kPa | 714.1 ± 2
7997 kPa | 714.1 ± 2
8016 kPa | 714 ± 2
8033 kPa | 714.1 ± 2
8054 kPa | 714.1 ± 2
8074 kPa | 714.1 ± 2
8097 kPa | 714.1 ± 2
8121 kPa | 714.2 ± 2
8138 kPa | 714.2 ± 2
8158 kPa | 714.1 ± 2
8179 kPa | 714.2 ± 2
8197 kPa | 714.3 ± 2
8218 kPa | 714.3 ± 2
8245 kPa | 714.3 ± 2
8263 kPa | 714.3 ± 2
8284 kPa | 714.3 ± 2
8306 kPa | 714.4 ± 2
8333 kPa | 714.4 ± 2
8348 kPa | 714.4 ± 2
8376 kPa | 714.5 ± 2
8451 kPa | 714.3 ± 2
8476 kPa | 714.5 ± 2
8495 kPa | 714.5 ± 2
8518 kPa | 714.6 ± 2
8543 kPa | 714.5 ± 2
8582 kPa | 714.5 ± 2
8625 kPa | 714.6 ± 2
8654 kPa | 714.7 ± 2
8677 kPa | 714.6 ± 2
8707 kPa | 714.7 ± 2
8738 kPa | 714.7 ± 2
8762 kPa | 714.6 ± 2
8789 kPa | 714.7 ± 2
8813 kPa | 714.7 ± 2
8834 kPa | 714.8 ± 2
8855 kPa | 714.8 ± 2
8876 kPa | 714.7 ± 2
8907 kPa | 714.8 ± 2
8932 kPa | 714.8 ± 2
8957 kPa | 714.9 ± 2
8990 kPa | 714.8 ± 2
9031 kPa | 715 ± 2
9048 kPa | 715 ± 2
9072 kPa | 715.1 ± 2
9095 kPa | 715 ± 2
9118 kPa | 715.1 ± 2
9139 kPa | 715 ± 2
9160 kPa | 715.1 ± 2
9185 kPa | 715.1 ± 2
9212 kPa | 715 ± 2
9231 kPa | 715 ± 2
9255 kPa | 715.2 ± 2
9277 kPa | 715.1 ± 2
9304 kPa | 715.3 ± 2
9344 kPa | 715.2 ± 2
9366 kPa | 715.1 ± 2
9390 kPa | 715.1 ± 2
9415 kPa | 715.2 ± 2
9434 kPa | 715.3 ± 2
9476 kPa | 715.4 ± 2
9504 kPa | 715.4 ± 2
9524 kPa | 715.4 ± 2
9550 kPa | 715.4 ± 2
9576 kPa | 715.4 ± 2
9607 kPa | 715.3 ± 2
9630 kPa | 715.4 ± 2
9653 kPa | 715.5 ± 2
9676 kPa | 715.5 ± 2
9703 kPa | 715.4 ± 2
9721 kPa | 715.6 ± 2
9741 kPa | 715.5 ± 2
9766 kPa | 715.5 ± 2
9789 kPa | 715.5 ± 2
9813 kPa | 715.5 ± 2
9834 kPa | 715.6 ± 2
9852 kPa | 715.7 ± 2
9870 kPa | 715.7 ± 2
9901 kPa | 715.7 ± 2
9920 kPa | 715.7 ± 2
9941 kPa | 715.6 ± 2
9965 kPa | 715.8 ± 2
9990 kPa | 715.7 ± 2
10015 kPa | 715.8 ± 2
10040 kPa | 715.9 ± 2
10068 kPa | 715.9 ± 2
10093 kPa | 715.9 ± 2
10113 kPa | 715.9 ± 2
10141 kPa | 715.8 ± 2
10166 kPa | 715.9 ± 2
10189 kPa | 715.8 ± 2
10208 kPa | 715.9 ± 2
10238 kPa | 716 ± 2
10264 kPa | 716 ± 2
10291 kPa | 716 ± 2
10367 kPa | 716.1 ± 2
10397 kPa | 716.1 ± 2
10421 kPa | 716.1 ± 2
10442 kPa | 716.2 ± 2
10472 kPa | 716.2 ± 2
10493 kPa | 716.2 ± 2
10520 kPa | 716.1 ± 2
10579 kPa | 716.2 ± 2
10608 kPa | 716.2 ± 2
10639 kPa | 716.3 ± 2
10664 kPa | 716.2 ± 2
10686 kPa | 716.4 ± 2
10714 kPa | 716.4 ± 2
10739 kPa | 716.4 ± 2
10771 kPa | 716.4 ± 2
10796 kPa | 716.4 ± 2
10826 kPa | 716.4 ± 2
10852 kPa | 716.5 ± 2
10882 kPa | 716.5 ± 2
10909 kPa | 716.5 ± 2
10931 kPa | 716.6 ± 2
10956 kPa | 716.5 ± 2
10988 kPa | 716.6 ± 2
11010 kPa | 716.6 ± 2
11042 kPa | 716.7 ± 2
11071 kPa | 716.7 ± 2
11103 kPa | 716.7 ± 2
11126 kPa | 716.8 ± 2
11156 kPa | 716.7 ± 2
11185 kPa | 716.7 ± 2
11209 kPa | 716.9 ± 2
11236 kPa | 716.8 ± 2
11259 kPa | 716.7 ± 2
11422 kPa | 717 ± 2
11448 kPa | 717 ± 2
11495 kPa | 717 ± 2
11520 kPa | 717 ± 2
11538 kPa | 717.1 ± 2
11560 kPa | 717 ± 2
11582 kPa | 717 ± 2
11601 kPa | 717.2 ± 2
11626 kPa | 717 ± 2
11645 kPa | 717.1 ± 2
11670 kPa | 717.2 ± 2
11695 kPa | 717 ± 2
11718 kPa | 717.2 ± 2
11739 kPa | 717.1 ± 2
11755 kPa | 717.1 ± 2
11781 kPa | 717.2 ± 2
11813 kPa | 717.3 ± 2
11845 kPa | 717.4 ± 2
11865 kPa | 717.2 ± 2
11891 kPa | 717.4 ± 2
11927 kPa | 717.4 ± 2
11954 kPa | 717.4 ± 2
11974 kPa | 717.4 ± 2
12001 kPa | 717.4 ± 2
12022 kPa | 717.4 ± 2
12046 kPa | 717.5 ± 2
12071 kPa | 717.5 ± 2
12283 kPa | 717.7 ± 2
12299 kPa | 717.6 ± 2
12320 kPa | 717.7 ± 2
12335 kPa | 717.6 ± 2
12350 kPa | 717.7 ± 2
12372 kPa | 717.8 ± 2
12543 kPa | 717.9 ± 2
12558 kPa | 717.9 ± 2
12576 kPa | 717.9 ± 2
12592 kPa | 717.9 ± 2
12612 kPa | 718 ± 2
12628 kPa | 717.9 ± 2
12644 kPa | 717.9 ± 2
12667 kPa | 717.9 ± 2
12689 kPa | 718 ± 2
12714 kPa | 718.1 ± 2
12739 kPa | 718.1 ± 2
12755 kPa | 718 ± 2
12770 kPa | 718 ± 2
12790 kPa | 718.3 ± 2
12807 kPa | 718.1 ± 2
12823 kPa | 718.1 ± 2
12837 kPa | 718 ± 2
12936 kPa | 718.2 ± 2
12949 kPa | 718.2 ± 2
13023 kPa | 718.3 ± 2
13043 kPa | 718.3 ± 2
13073 kPa | 718.3 ± 2
13090 kPa | 718.3 ± 2
13112 kPa | 718.3 ± 2
13128 kPa | 718.4 ± 2
13145 kPa | 718.3 ± 2
13160 kPa | 718.4 ± 2
13180 kPa | 718.4 ± 2
13197 kPa | 718.5 ± 2
13215 kPa | 718.4 ± 2
13228 kPa | 718.4 ± 2
13244 kPa | 718.4 ± 2
13258 kPa | 718.4 ± 2
13272 kPa | 718.4 ± 2
13285 kPa | 718.4 ± 2
13303 kPa | 718.6 ± 2
13314 kPa | 718.5 ± 2
13328 kPa | 718.5 ± 2
13346 kPa | 718.4 ± 2
13361 kPa | 718.4 ± 2
13379 kPa | 718.4 ± 2
13395 kPa | 718.6 ± 2
13413 kPa | 718.5 ± 2
13429 kPa | 718.6 ± 2
13443 kPa | 718.6 ± 2
13457 kPa | 718.6 ± 2
13476 kPa | 718.7 ± 2
13496 kPa | 718.6 ± 2
13510 kPa | 718.6 ± 2
13531 kPa | 718.5 ± 2
13547 kPa | 718.7 ± 2
13565 kPa | 718.7 ± 2
13587 kPa | 718.7 ± 2
13601 kPa | 718.6 ± 2
13622 kPa | 718.7 ± 2
13639 kPa | 718.7 ± 2
13660 kPa | 718.8 ± 2
13677 kPa | 718.8 ± 2
13699 kPa | 718.8 ± 2
13715 kPa | 718.9 ± 2
13732 kPa | 718.8 ± 2
13753 kPa | 718.9 ± 2
13770 kPa | 718.9 ± 2
